± gives the standard deviation of the averaged measurements.
Tests used:
[1] = compound: COc1ccc(C2=N[C@@H](c3ccc(Cl)cc3)[C@@H](c3ccc(Cl)cc3)N2C(=O)N2CCNC(=O)C2)c(OC(C)C)c1 [NUTLIN3]; assay: surviving fraction relative to DMSO-only wells; higher = less growth inhibition; details: exposure time: 5 days
Procedure, shortened: (§1)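 Viability values are CellTiter-Glo luminescence readings, given as surviving fraction against the median of DMSO-only wells. The readings were taken after 10 minutes at room temperature, following five days of continuous exposure to inhibitors at 0.5, 1, 5, 10, 50, 100, 500 and 1000 nM that began 24 hours after log-phase tumour cell lines were seeded at 250–500 cells per well in 384-well plates. Every line was screened three times and kept only if replicate Pearson r >0.7 and median Z' >0.3.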

[2] = compound: CC[C@@H](C(=O)[C@@H](C)[C@@H](O)[C@H](C)[C@@H]1O[C@@H]([C@@H](CC)C(=O)O)CC[C@@H]1C)[C@H]1O[C@]2(C=C[C@@H](O)[C@]3(CC[C@@](C)([C@H]4CC[C@](O)(CC)[C@H](C)O4)O3)O2)[C@H](C)C[C@@H]1C [SALINOMYCIN]; assay: as above; details: exposure time: 5 days
Procedure, shortened: as §1

Row | Test System | surviving fraction ([1]; 0.5 nM) | surviving fraction ([1]; 1 nM) | surviving fraction ([1]; 5 nM) | surviving fraction ([1]; 10 nM) | surviving fraction ([1]; 50 nM) | surviving fraction ([1]; 100 nM) | surviving fraction ([1]; 500 nM) | surviving fraction ([1]; 1000 nM) | surviving fraction ([2]; 0.5 nM) | surviving fraction ([2]; 1 nM) | surviving fraction ([2]; 5 nM) | surviving fraction ([2]; 10 nM) | surviving fraction ([2]; 50 nM) | surviving fraction ([2]; 100 nM) | surviving fraction ([2]; 500 nM) | surviving fraction ([2]; 1000 nM)
1 | HCC1395 BREAST | 1.18 ± 0.046 | 1.14 ± 0.1 | 1.25 ± 0.022 | 1.12 ± 0.069 | 1.21 ± 0.06 | 1.09 ± 0.061 | 0.999 ± 0.094 | 1.13 ± 0.16 | 1.06 ± 0.1 | 1.26 ± 0.26 | 1.17 ± 0.11 | 1.05 ± 0.15 | 1.16 ± 0.13 | 1.11 ± 0.041 | 0.843 ± 0.13 | 0.751 ± 0.16
2 | HCC1806 BREAST | 1.07 ± 0.079 | 1.04 ± 0.1 | 1.07 ± 0.15 | 1.08 ± 0.13 | 1.07 ± 0.1 | 1.05 ± 0.17 | 1.05 ± 0.16 | 1.17 ± 0.2 | 0.957 ± 0.25 | 0.695 ± 0.59 | 0.819 ± 0.58 | 0.709 ± 0.61 | 0.965 ± 0.17 | 0.873 ± 0.04 | 0.33 ± 0.056 | 0.223 ± 0.0067
3 | HCC1954 BREAST | 1.17 ± 0.071 | 1.16 ± 0.08 | 1.11 ± 0.07 | 1.01 ± 0.36 | 1.22 ± 0.26 | 1.14 ± 0.064 | 1.15 ± 0.051 | 0.99 ± 0.036 | 0.944 ± 0.29 | 0.82 ± 0.39 | 0.919 ± 0.36 | 1.03 ± 0.088 | 0.953 ± 0.011 | 0.725 ± 0.04 | 0.295 ± 0.0032 | 0.172 ± 0.023
4 | HCT15 LARGE INTESTINE | 1.01 ± 0.038 | 1.01 ± 0.013 | 1.01 ± 0.018 | 0.992 ± 0.013 | 1.05 ± 0.034 | 1.07 ± 0.061 | 1.04 ± 0.056 | 1.01 ± 0.017 | 0.933 ± 0.022 | 0.843 ± 0.059 | 0.894 ± 0.028 | 0.589 ± 0.016 | 1.03 ± 0.041 | 0.964 ± 0.015 | 0.893 ± 0.032 | 0.442 ± 0.029
5 | HELA CERVIX | 1.01 ± 0.092 | 1 ± 0.039 | 1 ± 0.025 | 0.984 ± 0.043 | 1.06 ± 0.044 | 1.07 ± 0.041 | 1.08 ± 0.03 | 1.13 ± 0.039 | 0.974 ± 0.053 | 0.936 ± 0.068 | 0.97 ± 0.059 | 0.906 ± 0.041 | 1.03 ± 0.06 | 0.885 ± 0.056 | 0.942 ± 0.056 | 0.55 ± 0.045
6 | HOS BONE | 1.011 ± 0.0078 | 1.03 ± 0.014 | 1.008 ± 0.01 | 0.994 ± 0.02 | 1.06 ± 0.02 | 1.05 ± 0.01 | 1.057 ± 0.0091 | 1.09 ± 0.021 | 0.99 ± 0.0076 | 0.969 ± 0.0052 | 0.997 ± 0.023 | 0.966 ± 0.0082 | 1.03 ± 0.012 | 0.858 ± 0.032 | 0.0367 ± 0.0031 | 0.0627 ± 0.019
7 | HOSMNG BONE | 1.04 ± 0.056 | 1.03 ± 0.033 | 0.979 ± 0.098 | 0.975 ± 0.076 | 1.09 ± 0.025 | 1.12 ± 0.013 | 1.12 ± 0.026 | 1.13 ± 0.023 | 0.987 ± 0.1 | 0.945 ± 0.13 | 1.03 ± 0.086 | 0.985 ± 0.15 | 1.05 ± 0.13 | 0.993 ± 0.18 | 0.909 ± 0.09 | 0.511 ± 0.12
8 | HSSYII SYNOVIAL | 0.951 ± 0.02 | 0.904 ± 0.051 | 0.976 ± 0.041 | 0.9313 ± 0.0089 | 0.942 ± 0.053 | 0.91 ± 0.035 | 0.676 ± 0.058 | 0.43 ± 0.04 | 0.892 ± 0.033 | 0.842 ± 0.027 | 0.864 ± 0.043 | 0.582 ± 0.026 | 0.94 ± 0.017 | 0.743 ± 0.033 | 0.0705 ± 0.0015 | 0.0267 ± 0.0019
9 | HT1080 SOFT TISSUE | 1.02 ± 0.019 | 0.978 ± 0.031 | 0.998 ± 0.012 | 1.02 ± 0.018 | 0.9757 ± 0.0085 | 0.929 ± 0.01 | 0.797 ± 0.024 | 0.58 ± 0.046 | 1.03 ± 0.034 | 1.02 ± 0.015 | 1.03 ± 0.024 | 1.05 ± 0.031 | 1.06 ± 0.03 | 1.03 ± 0.089 | 0.78 ± 0.035 | 0.557 ± 0.018
10 | HU09 BONE | 1.03 ± 0.17 | 0.933 ± 0.1 | 1.02 ± 0.14 | 1.03 ± 0.059 | 1.04 ± 0.069 | 1.08 ± 0.11 | 1.04 ± 0.14 | 1.03 ± 0.085 | 1.06 ± 0.035 | 1.01 ± 0.019 | 1.12 ± 0.14 | 1.03 ± 0.091 | 1.04 ± 0.12 | 0.897 ± 0.077 | 0.476 ± 0.036 | 0.271 ± 0.0068
11 | HUO3N1 BONE | 1.07 ± 0.046 | 0.988 ± 0.032 | 1.039 ± 0.0087 | 1 ± 0.034 | 1.09 ± 0.032 | 1.03 ± 0.032 | 1.01 ± 0.068 | 1.04 ± 0.033 | 1.01 ± 0.052 | 0.984 ± 0.073 | 1.01 ± 0.04 | 1.02 ± 0.071 | 0.844 ± 0.012 | 0.51 ± 0.023 | 0.167 ± 0.0067 | 0.151 ± 0.0097
12 | JIMT1 BREAST | 0.985 ± 0.011 | 0.976 ± 0.018 | 1.01 ± 0.037 | 0.9965 ± 0.0076 | 1.08 ± 0.037 | 1.06 ± 0.016 | 1.06 ± 0.043 | 1.04 ± 0.018 | 0.96 ± 0.014 | 0.977 ± 0.021 | 0.979 ± 0.021 | 0.999 ± 0.021 | 0.988 ± 0.033 | 0.95 ± 0.013 | 0.51 ± 0.024 | 0.356 ± 0.02
13 | JURKAT HAEMATOPOIETIC AND LYMPHOID TISSUE | 1.11 ± 0.031 | 1.1 ± 0.015 | 1.07 ± 0.015 | 1.06 ± 0.017 | 1.05 ± 0.078 | 1.03 ± 0.012 | 1.02 ± 0.022 | 1.03 ± 0.013 | 1.08 ± 0.011 | 1.09 ± 0.028 | 1.03 ± 0.02 | 1.04 ± 0.042 | 0.815 ± 0.024 | 0.673 ± 0.018 | 0.23 ± 0.005 | 0.101 ± 0.0053
14 | KPD BONE | 0.968 ± 0.042 | 0.966 ± 0.049 | 1.05 ± 0.064 | 0.987 ± 0.023 | 1.03 ± 0.061 | 1.01 ± 0.098 | 1.01 ± 0.017 | 0.962 ± 0.075 | 0.931 ± 0.046 | 0.942 ± 0.013 | 1 ± 0.064 | 0.979 ± 0.018 | 0.93 ± 0.032 | 0.7467 ± 0.005 | 0.235 ± 0.015 | 0.128 ± 0.016
15 | LM7 BONE | 0.99 ± 0.075 | 0.977 ± 0.082 | 1.05 ± 0.025 | 1.07 ± 0.14 | 0.987 ± 0.065 | 1.08 ± 0.046 | 1.03 ± 0.1 | 0.994 ± 0.05 | 1.01 ± 0.021 | 1.01 ± 0.068 | 1.06 ± 0.041 | 1.11 ± 0.065 | 1.05 ± 0.053 | 1.09 ± 0.051 | 0.588 ± 0.04 | 0.397 ± 0.02
16 | LNCAP PROSTATE | 1.03 ± 0.034 | 1.01 ± 0.078 | 0.955 ± 0.065 | 1 ± 0.086 | 0.956 ± 0.073 | 0.803 ± 0.089 | 0.491 ± 0.12 | 0.289 ± 0.011 | 0.833 ± 0.096 | 0.884 ± 0.07 | 0.818 ± 0.18 | 0.815 ± 0.11 | 0.643 ± 0.01 | 0.215 ± 0.013 | 0.0563 ± 0.005 | 0.0493 ± 0.0031
17 | MCF7 BREAST | 0.881 ± 0.036 | 0.841 ± 0.038 | 0.819 ± 0.013 | 0.821 ± 0.038 | 0.939 ± 0.021 | 0.952 ± 0.051 | 0.865 ± 0.013 | 0.85 ± 0.039 | 0.853 ± 0.048 | 0.8602 ± 0.005 | 0.821 ± 0.025 | 0.815 ± 0.034 | 0.941 ± 0.02 | 0.908 ± 0.055 | 0.677 ± 0.014 | 0.348 ± 0.028
18 | MDAMB134 BREAST | 1.03 ± 0.011 | 0.923 ± 0.0071 | 1.013 ± 0.0085 | 0.84 ± 0.11 | 1.125 ± 0.0021 | 1.07 ± 0.032 | 1.021 ± 0.0042 | 0.896 ± 0.028 | 1.05 ± 0.26 | 1.01 ± 0.22 | 0.995 ± 0.0042 | 1.08 ± 0.015 | 1.02 ± 0.069 | 1.05 ± 0.021 | 1.32 ± 0.041 | 1.04 ± 0.037
19 | MDAMB157 BREAST | 0.957 ± 0.071 | 0.961 ± 0.093 | 0.97 ± 0.11 | 0.913 ± 0.12 | 1.02 ± 0.075 | 1 ± 0.039 | 0.999 ± 0.051 | 1.04 ± 0.074 | 0.881 ± 0.017 | 0.904 ± 0.042 | 0.985 ± 0.073 | 0.99 ± 0.044 | 0.982 ± 0.078 | 0.819 ± 0.054 | 0.217 ± 0.043 | 0.139 ± 0.011
20 | MDAMB231 BREAST | 0.97 ± 0.013 | 0.976 ± 0.028 | 1.01 ± 0.017 | 0.977 ± 0.019 | 1.06 ± 0.017 | 1.06 ± 0.02 | 1 ± 0.026 | 0.995 ± 0.022 | 0.9877 ± 0.006 | 0.9962 ± 0.0061 | 0.993 ± 0.011 | 0.983 ± 0.018 | 1 ± 0.057 | 0.953 ± 0.016 | 0.559 ± 0.011 | 0.425 ± 0.0083

Source: the supplement of paper PMC6045584
